Inconclusive results and toxic doses are left out. The calls were made as follows: active = survival T/C of 150% or more; inactive = T/C below 125% in these data.
Tested on: CD2F1 mice, L1210 leukemia ip, survival T/C
Assay: NCI In Vivo Anticancer Drug Screen. Data for tumor model L1210 Leukemia (intraperitoneal) in CD2F1 (CDF1) mice
Conditions: endpoint: mean survival time, higher = longer survival
Outline: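 Read-out first: treated-group measurement over vehicle-control measurement, expressed as a ratio. Animals bore a transplanted tumor line and were dosed with compound or vehicle.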

[1] = dose: 100.0 mg/kg/injection, schedule: Q01DX009 (ip), vehicle: saline with Tween-80
[2] = dose: 200.0 mg/kg/injection, schedule: Q01DX009 (ip), vehicle: saline with Tween-80

Measured: T/C

CCOC(=O)C(CC)C(=O)OCC
inactive: [1] 94 % of control | [2] 93 % of control | dose: 400.0 mg/kg/injection, schedule: Q01DX009 (ip), vehicle: saline with Tween-80 94 % of control

N#Cc1c(F)c(F)cc(F)c1F
inactive: [1] 100 % of control | dose: 100.0 mg/kg/injection, schedule: Q04DX003 (ip), vehicle: saline with Tween-80 96 % of control | [2] 96 % of control | dose: 200.0 mg/kg/injection, schedule: Q04DX003 (ip), vehicle: saline with Tween-80 96 % of control | dose: 400.0 mg/kg/injection, schedule: Q04DX003 (ip), vehicle: saline with Tween-80 93 % of control

Nc1nc(=S)n(C2OCC(O)C(O)C2O)c2ccccc12 (centres undefined)
inactive: dose: 12.5 mg/kg/injection, schedule: Q01DX005 (ip), vehicle: distilled water + Tween-80 97 % of control | dose: 25.0 mg/kg/injection, schedule: Q01DX005 (ip), vehicle: distilled water + Tween-80 96 % of control | dose: 50.0 mg/kg/injection, schedule: Q01DX005 (ip), vehicle: distilled water + Tween-80 96 % of control | dose: 100.0 mg/kg/injection, schedule: Q01DX005 (ip), vehicle: distilled water + Tween-80 96 % of control | dose: 200.0 mg/kg/injection, schedule: Q01DX005 (ip), vehicle: distilled water + Tween-80 91 % of control

NC(=O)C1(C(N)=O)CCCC1
inactive: dose: 75.0 mg/kg/injection, schedule: Q04DX002 (ip), vehicle: saline with Tween-80 112 % of control | dose: 150.0 mg/kg/injection, schedule: Q04DX002 (ip), vehicle: saline with Tween-80 96 % of control | dose: 300.0 mg/kg/injection, schedule: Q04DX002 (ip), vehicle: saline with Tween-80 96 % of control

CSC(Cl)=C(Cl)Cl
inactive: dose: 25.0 mg/kg/injection, schedule: Q01DX009 (ip), vehicle: saline with Tween-80 97 % of control | dose: 50.0 mg/kg/injection, schedule: Q01DX009 (ip), vehicle: saline with Tween-80 95 % of control | [1] 97 % of control

— PubChem BioAssay AID256 (DTP/NCI, 2004)
